Biological target: T1, chimeric protein PPARγ-Gal4 (Homo sapiens, UniProt P37231)
T1 construct: Gal4 (yeast transcription factor); expressed in transfected cells; host or cells: CV-1 cells (monkey kidney cells)
T1 sequence (P37231 238-503 limits assumed): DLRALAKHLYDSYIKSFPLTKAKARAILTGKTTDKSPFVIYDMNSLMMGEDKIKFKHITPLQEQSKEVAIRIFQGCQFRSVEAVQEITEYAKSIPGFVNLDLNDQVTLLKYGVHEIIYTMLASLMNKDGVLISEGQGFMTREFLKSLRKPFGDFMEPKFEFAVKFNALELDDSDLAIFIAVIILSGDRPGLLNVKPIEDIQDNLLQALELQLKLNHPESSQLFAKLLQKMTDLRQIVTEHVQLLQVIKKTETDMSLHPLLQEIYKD
Assay: PPARγ-Gal4 transactivation (luciferase reporter) test in cotransfected CV-1 cells
Format: cell-based
Experimental: The measurement of the PPAR activation was performed according to a technique described by Lehmann et al. (J. Biol. Chem., 270, (1995),
CV-1 cells (monkey kidney cells) are cotransfected with an expression vector for the chimeric protein PPARγ-Gal4 and with a “reporter” plasmid that allows expression of the luciferase gene placed under the control of a promoter comprising Gal4 response elements.
The cells are seeded in 96-well microplates and cotransfected using a commercial reagent with the reporter plasmid (pG5-tk-pGL3) and the expression vector for the chimeric protein (PPARγ-Gal4). After incubation for 4 hours, whole culture medium (comprising 10% foetal calf serum) is added to the wells. After 24 hours, the medium is removed and replaced with whole medium comprising the test products. The products are left in contact with the cells for 18 hours. The cells are then lysed and the luciferase activity is measured using a luminometer. A PPARγ activation factor can then be calculated by means of the activation of the expression of the reporter gene induced by the product (relative to the control cells that have received no product).
In the absence of the PPARγ ligand binding domain (vector expressing Gal4 alone), the luciferase activity measured in the presence of an agonist is zero.
The following transactivation result was obtained with a concentration of 50 μM on PPARγ.
The transactivation test using the expression of a chimeric protein Gal-4-PPARγ makes it possible to determine also whether an agonist functions as a “full” agonist or as a “partial” agonist in this system.
An agonist is “partial” in this system if it induces a weaker response, i.e. it has lower efficacy, than rosiglitazone, which is a “full” agonist. In concrete terms, in our system, the transactivation obtained at the plateau with a partial agonist will be between 20% and 50% of the maximum response (efficacy) at the plateau of rosiglitazone.

SMILES | Activation factor of the chimeric protein PPARγ-Gal4 (50 μM, CV-1 cells (monkey kidney cells), 18 hours contact, luciferase reporter, relative to control cells without product (= 1)) | Concentration to reach the maximum stimulation of the PPARγ chimeric protein (Gal4-PPARγ transactivation test, CV-1 cells) [µM] | Emax (transactivation at the plateau as % of the maximum response (efficacy) of rosiglitazone, CV-1 cells, read-out: Maximum stimulation of the PPARγ chimeric protein obtained with rosiglitazone) [%]
CCOC(=O)c1c(C)n(Cc2ccccc2)c2cc(-c3cccnc3)c(OCCCC(=O)O)cc12 [Example 4, Ethyl-benzyl-5-(3-carboxypropoxy)-2-methyl-6-pyrid-3-yl-1H-indole-3-carboxylate] | 17 | – | –
CCOC(=O)c1c(C)n(CCOC)c2cc(CCCC3CCCC3)c(OCCCC(=O)O)cc12 [Example 31, ethyl 5-(3-carboxypropoxy)-6-(3-cyclopentylpropyl)-1-(2-methoxyethyl)-2-methyl-1H-indole-3-carboxylate] | – | 1 | 24
